Reference: article PMC10178848, “Modulating fast skeletal muscle contraction protects skeletal muscle in animal models of Duchenne muscular dystrophy” (The Journal of Clinical Investigation, 2023)

Tested on: GRMD plasma proteins
Format: in vivo, dog
Details: Post-Treatment to GRMD baseline; Increased in GRMD

## O=c1ccc(-c2cnc(OCC(F)(F)F)nc2)nn1Cc1cncc(F)c1 [EDG-5506]
  Change from GRMD Baseline (fraction): Fructose-bisphosphate aldolase A (ALDOA): -0.0462 fraction
  Change from GRMD Baseline (fraction): G2/mitotic-specific cyclin-B1 (CCNB1): 0.0445 fraction
  Change from GRMD Baseline (fraction): Galectin-4 (LGALS4): -0.0246 fraction
  Change from GRMD Baseline (fraction): Galectin-7 (LGALS7): 0.0215 fraction
  Change from GRMD Baseline (fraction): Glucose-6-phosphate isomerase (GPI): -0.1195 fraction
  Change from GRMD Baseline (fraction): Glyceraldehyde-3-phosphate dehydrogenase (GAPDH): 0.1936 fraction
  Change from GRMD Baseline (fraction): Glycogen synthase kinase-3 alpha/beta (GSK3A GSK3B): -0.1722 fraction
  Change from GRMD Baseline (fraction): Granulocyte-macrophage colony-stimulating factor (CSF2): -0.1154 fraction
  Change from GRMD Baseline (fraction): Growth factor receptor-bound protein 2 (GRB2): -0.2826 fraction
  Change from GRMD Baseline (fraction): Growth/differentiation factor 5 (GDF5): -0.0828 fraction
  Change from GRMD Baseline (fraction): Heat shock 70 kDa protein 1A (HSPA1A): -0.1812 fraction
  Change from GRMD Baseline (fraction): Heat shock cognate 71 kDa protein (HSPA8): -0.1958 fraction
  Change from GRMD Baseline (fraction): Heat shock protein HSP 90-alpha/beta (HSP90AA1 HSP90AB1): -0.0775 fraction
  Change from GRMD Baseline (fraction): Heat shock protein HSP 90-beta (HSP90AB1): -0.0807 fraction
  Change from GRMD Baseline (fraction): Heat shock protein beta-1 (HSPB1): -0.0394 fraction
  Change from GRMD Baseline (fraction): Hepatoma-derived growth factor-related protein 2 (HDGFRP2): 0.011 fraction
  Change from GRMD Baseline (fraction): Heterogeneous nuclear ribonucleoprotein A/B (HNRNPAB): -0.0915 fraction
  Change from GRMD Baseline (fraction): Heterogeneous nuclear ribonucleoprotein Q (SYNCRIP): -0.0651 fraction
  Change from GRMD Baseline (fraction): Heterogeneous nuclear ribonucleoproteins A2/B1 (HNRNPA2B1): -0.1176 fraction
  Change from GRMD Baseline (fraction): Hexokinase-2 (HK2): 0.0338 fraction
  Change from GRMD Baseline (fraction): Histidine triad nucleotide-binding protein 1 (HINT1): -0.0574 fraction
  Change from GRMD Baseline (fraction): Histone H1.2 (HIST1H1C): -0.0242 fraction
  Change from GRMD Baseline (fraction): Histone deacetylase 8 (HDAC8): 0.0429 fraction
  Change from GRMD Baseline (fraction): Homeodomain-interacting protein kinase 3 (HIPK3): 0.4997 fraction
  Change from GRMD Baseline (fraction): Immunoglobulin superfamily containing leucine-rich repeat protein 2 (ISLR2): -0.0595 fraction
  Change from GRMD Baseline (fraction): Inducible T-cell costimulator (ICOS): -0.0476 fraction
  Change from GRMD Baseline (fraction): Inosine-5'-monophosphate dehydrogenase 2 (IMPDH2): -0.0129 fraction
  Change from GRMD Baseline (fraction): Insulin-degrading enzyme (IDE): -0.2863 fraction
  Change from GRMD Baseline (fraction): Insulin-like growth factor-binding protein 3 (IGFBP3): 0.0105 fraction
  Change from GRMD Baseline (fraction): Intercellular adhesion molecule 5 (ICAM5): -0.1345 fraction
  Change from GRMD Baseline (fraction): Interferon alpha-10 (IFNA10): -0.0472 fraction
  Change from GRMD Baseline (fraction): Interleukin-1 alpha (IL1A): -0.0188 fraction
  Change from GRMD Baseline (fraction): Interleukin-1 receptor-like 2 (IL1RL2): 0.0618 fraction
  Change from GRMD Baseline (fraction): Interleukin-15 receptor subunit alpha (IL15RA): -0.0392 fraction
  Change from GRMD Baseline (fraction): Interleukin-17F (IL17F): -0.0474 fraction
  Change from GRMD Baseline (fraction): Interleukin-37 (IL37): -0.0158 fraction
  Change from GRMD Baseline (fraction): Junctional adhesion molecule B (JAM2): -0.0421 fraction
  Change from GRMD Baseline (fraction): Junctional adhesion molecule C (JAM3): 0.0569 fraction
  Change from GRMD Baseline (fraction): Kallikrein-6 (KLK6): -0.032 fraction
  Change from GRMD Baseline (fraction): Kallikrein-12 (KLK12): 0.0927 fraction
  Change from GRMD Baseline (fraction): Kallikrein-14 (KLK14): 0.0054 fraction
  Change from GRMD Baseline (fraction): Kin of IRRE-like protein 3 (KIRREL3): 0.0811 fraction
  Change from GRMD Baseline (fraction): Kremen protein 2 (KREMEN2): -0.0135 fraction
  Change from GRMD Baseline (fraction): Kynureninase (KYNU): 0.1449 fraction
  Change from GRMD Baseline (fraction): L-Selectin (SELL): -0.0484 fraction
  Change from GRMD Baseline (fraction): L-lactate dehydrogenase B chain (LDHB): -0.1273 fraction
  Change from GRMD Baseline (fraction): Leucine-rich repeat serine/threonine-protein kinase 2 (LRRK2): -0.023 fraction
  Change from GRMD Baseline (fraction): Leucine-rich repeat transmembrane protein FLRT1 (FLRT1): 0.162 fraction
  Change from GRMD Baseline (fraction): Low affinity immunoglobulin epsilon Fc receptor (FCER2): -0.0106 fraction
  Change from GRMD Baseline (fraction): MAP kinase-activated protein kinase 2 (MAPKAPK2): -0.1017 fraction
  Change from GRMD Baseline (fraction): MAP kinase-activated protein kinase 3 (MAPKAPK3): -0.0643 fraction
  Change from GRMD Baseline (fraction): Macrophage scavenger receptor types I and II (MSR1): 0.4558 fraction
  Change from GRMD Baseline (fraction): Malate dehydrogenase, cytoplasmic (MDH1): -0.0153 fraction
  Change from GRMD Baseline (fraction): Methionine aminopeptidase 2 (METAP2): -0.0243 fraction
  Change from GRMD Baseline (fraction): Microtubule-associated protein tau (MAPT): -0.0598 fraction
  Change from GRMD Baseline (fraction): Mitogen-activated protein kinase 3 (MAPK3): -0.1158 fraction
  Change from GRMD Baseline (fraction): Mitogen-activated protein kinase 8 (MAPK8): -0.1634 fraction
  Change from GRMD Baseline (fraction): Mitogen-activated protein kinase 12 (MAPK12): -0.2043 fraction
  Change from GRMD Baseline (fraction): Mitogen-activated protein kinase 14 (MAPK14): -0.1229 fraction
  Change from GRMD Baseline (fraction): Mothers against decapentaplegic homolog 3 (SMAD3): -0.0623 fraction
  Change from GRMD Baseline (fraction): Myeloblastin (PRTN3): -0.0133 fraction
  Change from GRMD Baseline (fraction): Myoglobin (MB): -0.1998 fraction
  Change from GRMD Baseline (fraction): Myosin-binding protein C, slow-type (MYBPC1): -0.0674 fraction
  Change from GRMD Baseline (fraction): NKG2D ligand 2 (ULBP2): 0.031 fraction
  Change from GRMD Baseline (fraction): NSFL1 cofactor p47 (NSFL1C): -0.264 fraction
  Change from GRMD Baseline (fraction): Natural cytotoxicity triggering receptor 3 (NCR3): -0.0108 fraction
  Change from GRMD Baseline (fraction): Neuronal cell adhesion molecule (NRCAM): -0.0939 fraction
  Change from GRMD Baseline (fraction): Neutral ceramidase (ASAH2): -0.0127 fraction
  Change from GRMD Baseline (fraction): Nucleoside diphosphate kinase A (NME1): -0.1372 fraction
  Change from GRMD Baseline (fraction): OCIA domain-containing protein 1 (OCIAD1): -0.0044 fraction
  Change from GRMD Baseline (fraction): Oncostatin-M (OSM): 0.019 fraction
  Change from GRMD Baseline (fraction): Opioid-binding protein/cell adhesion molecule (OPCML): -0.0002 fraction
  Change from GRMD Baseline (fraction): PIK3CA/PIK3R1 (PIK3CA PIK3R1): -0.229 fraction
  Change from GRMD Baseline (fraction): Parathyroid hormone-related protein (PTHLH): -0.097 fraction
  Change from GRMD Baseline (fraction): Peptidyl-prolyl cis-trans isomerase E (PPIE): -0.0771 fraction
  Change from GRMD Baseline (fraction): Peroxiredoxin-1 (PRDX1): -0.0908 fraction
  Change from GRMD Baseline (fraction): Peroxiredoxin-6 (PRDX6): -0.0459 fraction
  Change from GRMD Baseline (fraction): Phosphatidylethanolamine-binding protein 1 (PEBP1): 0.0739 fraction
  Change from GRMD Baseline (fraction): Phosphoglucomutase-1 (PGM1): 0.1179 fraction
  Change from GRMD Baseline (fraction): Phosphoglycerate mutase 1 (PGAM1): -0.9265 fraction
  Change from GRMD Baseline (fraction): Plasma serine protease inhibitor (SERPINA5): -0.0121 fraction
  Change from GRMD Baseline (fraction): Platelet glycoprotein 4 (CD36): 0.0288 fraction
  Change from GRMD Baseline (fraction): Platelet-activating factor acetylhydrolase (PLA2G7): 0.0256 fraction
  Change from GRMD Baseline (fraction): Platelet-derived growth factor receptor alpha (PDGFRA): -0.0004 fraction
  Change from GRMD Baseline (fraction): Proliferating cell nuclear antigen (PCNA): -0.0276 fraction
  Change from GRMD Baseline (fraction): Protein NOV homolog (NOV): -0.0669 fraction
  Change from GRMD Baseline (fraction): Protein S100-A12 (S100A12): -0.009 fraction
  Change from GRMD Baseline (fraction): RAC-alpha/beta/gamma serine/threonine-protein kinase (AKT1 AKT2 AKT3): -0.2013 fraction
  Change from GRMD Baseline (fraction): RAC-beta serine/threonine-protein kinase (AKT2): -0.1736 fraction
  Change from GRMD Baseline (fraction): Rab GDP dissociation inhibitor beta (GDI2): -0.0642 fraction
  Change from GRMD Baseline (fraction): Receptor tyrosine-protein kinase erbB-3 (ERBB3): -0.022 fraction
  Change from GRMD Baseline (fraction): Receptor-type tyrosine-protein kinase FLT3 (FLT3): -0.0737 fraction
  Change from GRMD Baseline (fraction): Renin (REN): -0.032 fraction
  Change from GRMD Baseline (fraction): Retinoblastoma-associated protein (RB1): 0.235 fraction
  Change from GRMD Baseline (fraction): S-formylglutathione hydrolase (ESD): 0.0004 fraction
  Change from GRMD Baseline (fraction): Serine/threonine-protein kinase 17B (STK17B): 0.0071 fraction
  Change from GRMD Baseline (fraction): Serine/threonine-protein kinase Chk2 (CHEK2): 0.4343 fraction
  Change from GRMD Baseline (fraction): Serine/threonine-protein kinase WNK3 (WNK3): -0.2205 fraction
  Change from GRMD Baseline (fraction): Serine/threonine-protein kinase receptor R3 (ACVRL1): -0.0651 fraction
  Change from GRMD Baseline (fraction): Small nuclear ribonucleoprotein F (SNRPF): -0.0033 fraction
  Change from GRMD Baseline (fraction): Somatostatin-28 (SST): -0.0229 fraction
  Change from GRMD Baseline (fraction): T-lymphocyte activation antigen CD80 (CD80): 0.0022 fraction
  Change from GRMD Baseline (fraction): Thymic stromal lymphopoietin (TSLP): -0.034 fraction
  Change from GRMD Baseline (fraction): Thyroid peroxidase (TPO): -0.0311 fraction
  Change from GRMD Baseline (fraction): Tissue factor pathway inhibitor (TFPI): 0.029 fraction
  Change from GRMD Baseline (fraction): Transcription factor AP-1 (JUN): 0.0325 fraction
  Change from GRMD Baseline (fraction): Transketolase (TKT): -0.16 fraction
  Change from GRMD Baseline (fraction): Translationally-controlled tumor protein (TPT1): -0.0704 fraction
  Change from GRMD Baseline (fraction): Triosephosphate isomerase (TPI1): -0.2239 fraction
  Change from GRMD Baseline (fraction): Tropomyosin beta chain (TPM2): 0.0295 fraction
  Change from GRMD Baseline (fraction): Troponin I, cardiac muscle (TNNI3): 0.0415 fraction
  Change from GRMD Baseline (fraction): Troponin I, fast skeletal muscle (TNNI2): -0.0403 fraction
  Change from GRMD Baseline (fraction): Troponin T, cardiac muscle (TNNT2): -0.0244 fraction
  Change from GRMD Baseline (fraction): Tumor necrosis factor ligand superfamily member 11 (TNFSF11): 0.0726 fraction
  Change from GRMD Baseline (fraction): Tumor necrosis factor receptor superfamily member 1B (TNFRSF1B): -0.0355 fraction
  Change from GRMD Baseline (fraction): Tumor necrosis factor receptor superfamily member 3 (LTBR): -0.0213 fraction
  Change from GRMD Baseline (fraction): Tyrosine-protein kinase Yes (YES1): -0.136 fraction
  Change from GRMD Baseline (fraction): Tyrosine-protein kinase ZAP-70 (ZAP70): 0.0305 fraction
  Change from GRMD Baseline (fraction): Tyrosine-protein phosphatase non-receptor type 1 (PTPN1): -0.0601 fraction
